Settings: pH 7.4, 50 µM, 4 h, 25 °C; Pe calculated in 10^−6 cm/s, presented as −logPe

Q: Which “PAMPA BBB −logPe” value does the source give for `CC(C)NCC(O)COc1cccc2ccccc12.Cl` (stereo not shown) [Propranolol HCl, reference compound] here?
A: 4.389 ± 0.014

Source: paper PMC11433870, “Neurotoxicity, Neuroprotection, In Vitro MAOA/MAOB Inhibitory Activity Assessment, Molecular Docking, and Permeability Assay Studies of Newly Synthesized Hydrazones Containing a Pyrrole Ring” (Molecules, 2024)
